Laboratory results reported in patent US4045433A, “1,3,4,5-Tetrahydro-2H-1,4-benzodiazepin-2-ones” (priority 1974, dated 1977).
“Also recorded” adds a separate entry of the source. Like-named read-outs stand apart in the source and are kept apart here.

Assays:
CFLP mice [1] = assay: Antimetrazole activity (protection from tonic extensor spasm); format: in vivo; details: for ED50: Mus musculus, 1 h
Description: 1. The first series of examinations was carried out according to the method of Everett and Richards (Everett G. M., Richards R. K.: J. Pharm. Exp. Ther. 81, 402 (1944)). 125 mg./kg. of metrazole were administered subcutaneously to the test animals. 1 hour after the administration the animals protected from tonic extensor spasm and the surviving animals were counted.

CFLP mice [2] = assay: Maximum electroshock (anti-electroshock activity); format: in vivo; details: 1 hour before test; for ED50: Mus musculus, 1 h
Source text: 2. Maximum electroshock stimulus (100 Hz, 30 V, 0.2 sec.) was applied according to the method of Swinyard et al. (Swinyard E. A., Brown W. C., Goodman, L. S.: J. Pharmacol. 106, 319 (1952)). The animals showing no tonix extension on the hind limb upon stimulus were considered as protected.

CFLP mice [3] = assay: Hexobarbital narcosis potentiating effect; format: in vivo; details: screen test, i.p., 1 hour before hexobarbital 60 mg./kg. into tail vein; change of sleeping period related to controls
Description: The hexobarbital narcosis potentiating effect was determined by the method of Rumke et al. (Arch. Int. […]. The change of sleeping period was expressed in percent related to the controls.

Acute toxicity = format: in vivo, CFLP mice; details: mouse, in vivo, death rate observed for one week
[4] = Rotarod test (muscle incoordination and ataxia); format: in vivo, CFLP mice; details: mouse, in vivo, 1 hour before test
Description: (§1) a. Rotarod test: The test was carried out according to the method of Kinnard and Carr (Brit. J. Pharmacol. Exp. Ther. 121, 354 (1957)). […] The ED50 values were calculated from the percentage of the animals falling down within 120 sec.

CFLP mice [5] = assay: Antagonism of strychnine spasm; format: in vivo; details: for ED50: Mus musculus, po, 1 h, read-out: Antistrychnine activity ED50; for Antistrychnine ED50 : Antimetrazole: ratio (2) of Table 2, p.o.
Description: Tonic extensor spasm was produced by administering an intraperitoneal dosage of 2 mg./kg. of strychnine to the animals (Kerley T. L., Richards A. G., Begley, R. W., Abren, B. E. and Weaver, L. C: J. Pharmacol. Exp. Ther. 132, 360 (1961)). The animals showing no spasm were considered as protected.

CFLP mice [6] = assay: Rotarod test (muscle incoordination and ataxia); format: in vivo; details: for Rotarod ED50 : Antimetrazole ED50: ratio (1) of Table 2, p.o.
Description: as §1

[7] = Traction test (muscle incoordination and ataxia); set-up: species or system CFLP mice; details: mouse, in vivo, po, 1 hour before test; read-out: Traction test ED50
Description: b. Traction test: The test was carried out according to the method of Theobald et al. (Arch. int. Pharmacodyn. 148, 560 (1964)). The two anterior limbs of the test animals were placed onto a horizontal rod so as to let the animals clutch the rod. […] The ED50 values were calculated from the percentage of the animals showing negative response.

CFLP mice [8] = assay: Narcosis potentiating effect (sodium barbiturate); format: in vivo; details: for ED50: Mus musculus, po, 1 hour before sodium barbiturate 100 mg./kg. i.p.; for Narcosis potentiation ED50 : Antimetrazole ED50: ratio (3) of Table 2, p.o.
CFLP mice [9] = assay: Disappearance of righting reflex; format: in vivo; details: Mus musculus, po
CFLP mice [10] = assay: Acute toxicity; format: in vivo
CFLP mice [11] = assay: Sedative and muscle relaxant effects (overall assessment); format: in vivo; details: in words
[12] = ip, screen test, i.p., 1 hour before test, metrazole 125 mg./kg. s.c., read-out: Antimetrazole ED50
[13] = ip, screen test, i.p., read-out: Anti-electroshock ED50 ip.
[14] = ip, screen test, i.p., read-out: Rotarod ED50
[15] = po, p.o., 1 hour before test, metrazole 125 mg./kg. s.c., 95% confidence limit in next line, read-out: Antimetrazole activity ED50
[16] = po, p.o., 100 Hz, 30 V, 0.2 sec., read-out: Anti-electroshock activity ED50
[17] = po, 12/min., 120 sec., read-out: Rotarod test ED50
[18] = po, read-out: Acute toxicity (LD50)

SMILES | ED50 (CFLP mice [1]; [12]) | ED50 (CFLP mice [2]; [13]) | Hexobarbital potentiation, % (CFLP mice [3]) | LD50 at 168 h (Acute toxicity; ip, read-out: LD50 i.p.) | other results
CN1C(=O)CN(C(=O)c2ccccc2Cl)C(c2ccccc2)c2cc(Cl)ccc21 (stereo not shown) [Example 31, 1-Methyl-4-(o-chlorobenzoyl)-5-phenyl-7-chloro-1,3,4,5-tetrahydro-2H-1,4-benzodiazepine-2-one] | 14 mg/kg | 20 mg/kg | 85% | > 1600 mg/kg | 
CN1C(=O)CN(C=O)C(c2ccccc2)c2cc(Cl)ccc21 (stereo not shown) [Example 33, 1-Methyl-4-formyl-5-phenyl-7-chloro-1,3,4,5-tetrahydro-2H-1,4-benzodiazepine-2-one] | 3.4 mg/kg | 14 mg/kg | 110% | 688 mg/kg | TD50 at 1 h [4, 14]: 23 mg/kg
CN1C(=O)CN(C(N)=O)C(c2ccccc2)c2cc(Cl)ccc21 (single isomer, unassigned; (+)) [Example 55, (+)-1-Methyl-4-carbamoyl-5-phenyl-7-chloro-1,3,4,5-tetrahydro-2H-1,4-benzodiazepine-2-one] | 1.65 mg/kg | 10 mg/kg | 368% | 611 mg/kg | TD50 at 1 h [4, 14]: 7 mg/kg
CC(=O)N1CC(=O)N(C)c2ccc(Cl)cc2C1c1ccccc1 (stereo not shown) [Example 28, 1-Methyl-4-acetyl-5-phenyl-7-chloro-1,3,4,5-tetrahydro-2H-1,4-benzodiazepine-2-one] | 7 mg/kg | 20 mg/kg | 125% | 312 mg/kg | 
CN1C(=O)CN(C(N)=O)C(c2ccccc2)c2cc(Cl)ccc21 (racemic) [Compound "A", 1-methyl-4-carbamoyl-5-phenyl-7-chloro-1,3,4,5-tetrahydro-2H-1,4-benzodiazepine-2-one] |  |  |  |  | ED50 (CFLP mice [1]; [15]): 0.66 mg/kg; tetrachor spasm inhibiting effect / anticonvulsive effect compared with Diazepam (CFLP mice [1]; in words, vs Diazepam): practically identical to that of Diazepam; animals protected against metrazole spasm (CFLP mice [1]; single intravenous dosage of 5 mg./kg., 7 hours after administration): 50%; ED50 (CFLP mice [2]; [16]): 19.3 mg/kg; ED50 (CFLP mice [5]): 26 mg/kg; Antistrychnine ED50 : Antimetrazole (CFLP mice [5]): 39.4; TD50 at 1 h [4, 17]: 6.7 mg/kg; Rotarod ED50 : Antimetrazole ED50 (CFLP mice [6]): 10.2; TD50 at 1 h [7]: 26.9 mg/kg; ED50 (CFLP mice [8]): 8.8 mg/kg; Narcosis potentiation ED50 : Antimetrazole ED50 (CFLP mice [8]): 13.3; ED50 (CFLP mice [9]): 1400 mg/kg; LD50 at 168 h (Acute toxicity; [18]): 1680 mg/kg; therapeutic index compared with Diazepam (CFLP mice [10]; in words): more favourable; sedative and muscle relaxant effects compared with Diazepam (CFLP mice [11]): provokes muscle relaxation and sedation only in higher dosages; also recorded: much lower; relation of the effects to those of the reference substances (CFLP mice [11]; vs Chlorodiazepoxide and Diazepam): more closely related to those of Chlorodiazepoxide than of Diazepam; dosages provoking muscle incoordination, muscle relaxation, and narcosis potentiation in relation to the dosage provoking anticonvulsive effect (CFLP mice [11]; vs reference substances Diazepam and Chlorodiazepoxide): clearly more advantageous than the reference substances
NC(=O)N1CC(=O)Nc2ccc(Cl)cc2C1c1ccccc1 (stereo not shown) [Example 13, 4-Carbamoyl-5-phenyl-7-chloro-1,3,4,5-tetrahydro-2H-1,4-benzodiazepine-2-on] | 4.9 mg/kg | 14 mg/kg | 89% | 367 mg/kg | TD50 at 1 h [4, 14]: 13.5 mg/kg
CNC(=O)N1CC(=O)Nc2ccccc2C1c1ccccc1 (stereo not shown) [Example 15, 4-Methylcarbamoyl-5-phenyl-1,3,4,5-tetrahydro-2H-1,4-benzodiazepine-2-one] | 20 mg/kg | 20 mg/kg | 93% | > 500 mg/kg | 
CNC1=Nc2ccc(Cl)cc2C(c2ccccc2)=[N+]([O-])C1 [Chlorodiazepoxide, reference compound] |  |  |  |  | ED50 (CFLP mice [1]; [15]): 2.47 mg/kg; ED50 (CFLP mice [2]; [16]): 23.5 mg/kg; ED50 (CFLP mice [5]): 28.4 mg/kg; Antistrychnine ED50 : Antimetrazole (CFLP mice [5]): 11.5; TD50 at 1 h [4, 17]: 12.2 mg/kg; Rotarod ED50 : Antimetrazole ED50 (CFLP mice [6]): 4.9; TD50 at 1 h [7]: 31.2 mg/kg; ED50 (CFLP mice [8]): 8.1 mg/kg; Narcosis potentiation ED50 : Antimetrazole ED50 (CFLP mice [8]): 3.3; ED50 (CFLP mice [9]): 436 mg/kg; LD50 at 168 h (Acute toxicity; [18]): 850 mg/kg
CN1C(=O)CN=C(c2ccccc2)c2cc(Cl)ccc21 [Diazepam] |  |  |  |  | ED50 (CFLP mice [1]; [15]): 0.75 mg/kg; ED50 (CFLP mice [2]; [16]): 8.29 mg/kg; ED50 (CFLP mice [5]): 5.71 mg/kg; Antistrychnine ED50 : Antimetrazole (CFLP mice [5]): 7.6; Rotarod ED50 : Antimetrazole ED50 (CFLP mice [6]): 4.3; ED50 (CFLP mice [8]): 3.9 mg/kg; Narcosis potentiation ED50 : Antimetrazole ED50 (CFLP mice [8]): 5.2; ED50 (CFLP mice [9]): 238 mg/kg
CN1C(=O)CN(C(N)=O)C(c2ccccc2)c2cc(Cl)ccc21 (single isomer, unassigned; (-)) [Example 56, (-)-1-Methyl-4-carbamoyl-5-phenyl-7-chloro-1,3,4,5-tetrahydro-2H-1,4-benzodiazepine-2-one] |  |  | 112% |  | Antimetrazole ED50 (CFLP mice [1]; screen test, i.p., 1 hour before test, metrazole 125 mg./kg. s.c., 60 min): 2.2 mg/kg; Anti-electroshock ED50 ip. (CFLP mice [2]; screen test, i.p., 60 min): 8.4 mg/kg; Rotarod ED50 (CFLP mice [6]; screen test, i.p., 1 hour before test, 60 min): 13.0 mg/kg; LD50 i.p. (CFLP mice [10]; i.p., death rate observed for one week, 10080 min): 661.2 mg/kg
CC(NC(=O)N1CC(=O)N(C)c2ccc(Cl)cc2C1c1ccccc1)c1ccccc1 (stereo not shown) [Example 24, 1-Methyl-4-(1-methyl-benzylcarbamoyl)-5-phenyl-7-chloro-1,3,4,5-tetrahydro-2H-1,4-benzodiazepine-2-one] | 13.5 mg/kg | 20 mg/kg | 96% | 271 mg/kg | 
CCCCNC(=O)N1CC(=O)Nc2ccc([N+](=O)[O-])cc2C1c1ccccc1 (stereo not shown) [Example 18, 4-n-Butylcarbamoyl-5-phenyl-7-nitro-1,3,4,5-tetrahydro-2H-1,4-benzodiazepine-2-one] | 14 mg/kg | 20 mg/kg | 77% | 320 mg/kg | 
CNC(=O)N1CC(=O)Nc2ccc(Cl)cc2C1c1ccccc1 (stereo not shown) [Example 16, 4-Methylcarbamoyl-5-phenyl-7-chloro-1,3,4,5-tetrahydro-2H-1,4-benzodiazepine-2-one] | 4.1 mg/kg | 14 mg/kg | 104% | 800 mg/kg | 
CNC(=O)N1CC(=O)Nc2ccc([N+](=O)[O-])cc2C1c1ccccc1 (stereo not shown) [Example 14, 4-Methylcarbamoyl-5-phenyl-7-nitro-1,3,4,5-tetrahydro-2H-1,4-benzodiazepine-2-one] | 19.5 mg/kg | 20 mg/kg | 75% | 936 mg/kg | 
CCOC(=O)N1CC(=O)Nc2ccc([N+](=O)[O-])cc2C1c1ccccc1 (stereo not shown) [Example 2, 4-Ethoxycarbonyl-5-phenyl-7-nitro-1,3,4,5-tetrahydro-2H-1,4-benzodiazepine-2-one] | 12.5 mg/kg | 14 mg/kg | 168% | > 1600 mg/kg | 
